Source: article PMC6757289, “Design and Characterization of SGK3-PROTAC1, an Isoform Specific SGK3 Kinase PROTAC Degrader” (ACS Chemical Biology, 2019)

Target: T1, SGK3 (Homo sapiens, UniProt Q96BR1)
T1 sequence (Q96BR1 1-496): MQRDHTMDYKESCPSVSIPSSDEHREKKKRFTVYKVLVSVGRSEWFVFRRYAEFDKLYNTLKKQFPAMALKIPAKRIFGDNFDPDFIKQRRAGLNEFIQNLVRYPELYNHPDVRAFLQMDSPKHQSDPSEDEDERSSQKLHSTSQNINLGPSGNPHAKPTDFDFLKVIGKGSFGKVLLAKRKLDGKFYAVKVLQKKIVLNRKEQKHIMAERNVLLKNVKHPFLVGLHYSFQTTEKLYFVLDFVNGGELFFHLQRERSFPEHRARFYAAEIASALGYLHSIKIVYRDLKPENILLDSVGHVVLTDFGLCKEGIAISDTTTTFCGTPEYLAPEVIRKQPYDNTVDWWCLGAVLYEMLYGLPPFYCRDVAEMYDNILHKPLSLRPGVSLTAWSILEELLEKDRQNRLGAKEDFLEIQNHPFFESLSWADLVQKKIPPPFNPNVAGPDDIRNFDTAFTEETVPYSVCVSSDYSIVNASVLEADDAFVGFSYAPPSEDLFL
Assay: SGK3 degradation in HEK293 cells, immunoblot
Format: cell-based
Design: reduced endogenous SGK isoform or S6K1 expression when administered to HEK293 cells for 48 h; endogenous in cells; host or cells: HEK293; Dmax: dose or concentration left out as unconfirmed
Conditions: for remaining activity at 0.001 µM / remaining activity at 0.01 µM / remaining activity at 0.1 µM / remaining activity at 1 µM / remaining activity at 10 µM: Figure 2; for degradation of SGK3: HEK293, 8 h, cisSGK3-PROTAC1 up to 3 μM, SGK3-PROTAC1 0.1 μM
Experimental: Figure 1 Design and cellular activity of first generation SGK3 PROTACs. (A) Structure of compound 14H, previously published by Sanofi as an inhibitor of SGK3. (B) Starting material for SGK PROTACs. […] (C) Structures of first generation SGK PROTACs. SGK and E3 ligase targeting motifs were joined by a 3xPEG linker to produce the PROTACs. (D) HEK293 cells were treated for 48 h with increasing concentrations of each PROTAC compound from 0.1 nM to 10 μM. Cell lysates were subjected to immunoblot analysis with the indicated antibodies, and SGK3 protein levels were quantified in Image Studio Lite software (Licor).
Figure 2 Design and cellular evaluation of second and third generation SGK PROTACs. (A) Chemical structure of compounds DAT5–12, expanding upon DAT1. (B) Chemical structure of cisSGK3-PROTAC1. (C) HEK293 cells were treated for 48 h with increasing concentrations of each PROTAC compound from 1 nM to 10 μM. Cell lysates were subjected to immunoblot analysis with the indicated antibodies, and SGK3 protein levels quantified in Image Studio Lite software. (D) HEK293 cells were treated for 48 h with increasing concentrations of each PROTAC compound from 1 nM to 10 μM. Cell lysates were subjected to immunoblot analysis with the indicated antibodies, and SGK3 and S6K1 protein levels were quantified in Image Studio Lite software. TEXT PRINTED IN THE PICTURE: (C) DAT1: % SGK3: 100 (48h Treatment (μM): 0); % SGK3: 94 (48h Treatment (μM): 0.001); % SGK3: 82 (48h Treatment (μM): 0.01); % SGK3: 70 (48h Treatment (μM): 0.1); % SGK3: 52 (48h Treatment (μM): 1); % SGK3: 31 (48h Treatment (μM): 10) | (C) DAT5: % SGK3: 100 (48h Treatment (μM): 0); % SGK3: 104 (48h Treatment (μM): 0.001); % SGK3: 82 (48h Treatment (μM): 0.01); % SGK3: 92 (48h Treatment (μM): 0.1); % SGK3: 73 (48h Treatment (μM): 1); % SGK3: 36 (48h Treatment (μM): 10) | (C) DAT6: % SGK3: 100 (48h Treatment (μM): 0); % SGK3: 105 (48h Treatment (μM): 0.001); % SGK3: 90 (48h Treatment (μM): 0.01); % SGK3: 71 (48h Treatment (μM): 0.1); % SGK3: 44 (48h Treatment (μM): 1); % SGK3: 20 (48h Treatment (μM): 10) | (C) DAT7: % SGK3: 100 (48h Treatment (μM): 0); % SGK3: 77 (48h Treatment (μM): 0.001); % SGK3: 80 (48h Treatment (μM): 0.01); % SGK3: 95 (48h Treatment (μM): 0.1); % SGK3: 37 (48h Treatment (μM): 1); % SGK3: 29 (48h Treatment (μM): 10) | (D) DAT8: % SGK3: 100 (48h Treatment (μM): 0); % SGK3: 97 (48h Treatment (μM): 0.001); % SGK3: 107 (48h Treatment (μM): 0.01); % SGK3: 34 (48h Treatment (μM): 0.1); % SGK3: 24 (48h Treatment (μM): 1); % SGK3: 19 (48h Treatment (μM): 10) | (D) DAT9: % SGK3: 100 (48h Treatment (μM): 0); % SGK3: 105 (48h Treatment (μM): 0.001); % SGK3: 71 (48h Treatment (μM): 0.01); % SGK3: 40 (48h Treatment (μM): 0.1); % SGK3: 11 (48h Treatment (μM): 1); % SGK3: 12 (48h Treatment (μM): 10) | (D) DAT10: % SGK3: 100 (48h Treatment (μM): 0); % SGK3: 100 (48h Treatment (μM): 0.001); % SGK3: 76 (48h Treatment (μM): 0.01); % SGK3: 54 (48h Treatment (μM): 0.1); % SGK3: 11 (48h Treatment (μM): 1); % SGK3: 9 (48h Treatment (μM): 10) | (D) DAT11: % SGK3: 100 (48h Treatment (μM): 0); % SGK3: 96 (48h Treatment (μM): 0.001); % SGK3: 97 (48h Treatment (μM): 0.01); % SGK3: 41 (48h Treatment (μM): 0.1); % SGK3: 32 (48h Treatment (μM): 1); % SGK3: 29 (48h Treatment (μM): 10) | (D) DAT12: % SGK3: 100 (48h Treatment (μM): 0); % SGK3: 106 (48h Treatment (μM): 0.001); % SGK3: 84 (48h Treatment (μM): 0.01); % SGK3: 79 (48h Treatment (μM): 0.1); % SGK3: 32 (48h Treatment (μM): 1); % SGK3: 29 (48h Treatment (μM): 10) DOUBTS OF THE COPYIST ABOUT THIS PICTURE: All % SGK3 values are quantification numbers printed under immunoblot lanes; each was assigned to a concentration by lane position / DAT9 and DAT10, % SGK3: the first numbers are printed run together ('100105', '100100') and were split as 100 | 105 and 100 | 100
Figure 3 Characterization of cellular activities of SGK3-PROTAC1 and cisSGK3-PROTAC1. […]

[1] = HEK293, washout after 24 h of treatment

time of maximal reduction of SGK3 expression (HEK293, 1 μM) | concentration that maximally reduced SGK3 expression (HEK293, 8 h time point, dose response) | SGK3 degradation efficiency (HEK293, 48 h) | remaining activity at 0.001 µM (HEK293, 48 h) | remaining activity at 0.01 µM (HEK293, 48 h) | remaining activity at 0.1 µM (HEK293, 48 h, 0.1 μM) | reduction of SGK3 expression (HEK293, 48 h, 1 μM) | remaining activity at 1 µM (HEK293, 48 h, 1 μM) | reduction of SGK3 expression (HEK293, 48 h, 10 μM) | remaining activity at 10 µM (HEK293, 48 h, 10 μM) | Structure (SMILES) | degradation of endogenous SGK3 (HEK293, 0.3 μM, within 2 h) | degradation of SGK3 | reduction of SGK3 levels (HEK293, 48 h, 0.1 μM) | time to increased SGK3 expression after washout [1] | time to return of SGK3 protein to normal levels after washout [1] | Dmax (HEK293, within 8 h, read-out: maximal degradation of SGK3) | DC50 (SGK3 degradation)
≤ 16 h | 2 µM | + (“+” = >50% degradation at 10 μM) | 94% | 82% | 70% | 60% | 52% | 75% | 31% | Cc1ccc(F)c(S(=O)(=O)Nc2ccc(-c3nc(OC[C@H]4CN(CCOCCOCCOCC(=O)N[C@H](C(=O)N5C[C@H](O)C[C@H]5C(=O)NCc5ccc(-c6scnc6C)cc5)C(C)(C)C)CCO4)c4cn[nH]c4n3)cc2)c1 [DAT1] |  |  |  |  |  |  | 
 |  | + (“+” = >50% degradation at 10 μM) | 104% | 82% | 92% |  | 73% |  | 36% | Cc1ccc(F)c(S(=O)(=O)Nc2ccc(-c3nc(OC[C@H]4CN(CCOCCOCC(=O)N[C@H](C(=O)N5C[C@H](O)C[C@H]5C(=O)NCc5ccc(-c6scnc6C)cc5)C(C)(C)C)CCO4)c4cn[nH]c4n3)cc2)c1 [DAT5] |  |  |  |  |  |  | 
 |  | ++ (“++” = >50% degradation at 1 μM) | 105% | 90% | 71% |  | 44% |  | 20% | Cc1ccc(F)c(S(=O)(=O)Nc2ccc(-c3nc(OC[C@H]4CN(CCOCCOCCOCCOCC(=O)N[C@H](C(=O)N5C[C@H](O)C[C@H]5C(=O)NCc5ccc(-c6scnc6C)cc5)C(C)(C)C)CCO4)c4cn[nH]c4n3)cc2)c1 [DAT6] |  |  |  |  |  |  | 
 |  | ++ (“++” = >50% degradation at 1 μM) | 77% | 80% | 95% |  | 37% |  | 29% | Cc1ccc(F)c(S(=O)(=O)Nc2ccc(-c3nc(OC[C@H]4CN(CCOCCOCCOCCOCCOCC(=O)N[C@H](C(=O)N5C[C@H](O)C[C@H]5C(=O)NCc5ccc(-c6scnc6C)cc5)C(C)(C)C)CCO4)c4cn[nH]c4n3)cc2)c1 [DAT7] |  |  |  |  |  |  | 
 |  | ++ (“++” = >50% degradation at 1 μM) | 100% | 76% | 54% |  | 11% |  | 9% | Cc1ccc(F)c(S(=O)(=O)Nc2ccc(-c3nc(OC[C@H]4CN(CCCCCCOCCCCCCOCC(=O)N[C@H](C(=O)N5C[C@H](O)C[C@H]5C(=O)NCc5ccc(-c6scnc6C)cc5)C(C)(C)C)CCO4)c4cn[nH]c4n3)cc2)c1 [DAT10] |  |  |  |  |  |  | 
 |  | +++ (“+++” = >50% degradation at 0.1 μM) | 96% | 97% | 41% |  | 32% |  | 29% | COc1ccc(Cl)c(S(=O)(=O)Nc2ccc(-c3nc(OC[C@H]4CN(CCCCCCOCCOCCOCCOCC(=O)N[C@H](C(=O)N5C[C@H](O)C[C@H]5C(=O)NCc5ccc(-c6scnc6C)cc5)C(C)(C)C)CCO4)c4c(C)n[nH]c4n3)cc2)c1 [DAT11] |  |  |  |  |  |  | 
 |  |  |  |  |  |  |  |  |  | Cc1ccc(F)c(S(=O)(=O)Nc2ccc(-c3nc(OC[C@H]4CN(CCCCCCOCCOCCOCC(=O)N[C@H](C(=O)N5C[C@@H](O)C[C@H]5C(=O)NCc5ccc(-c6scnc6C)cc5)C(C)(C)C)CCO4)c4cn[nH]c4n3)cc2)c1 [cisSGK3-PROTAC1] |  | failed to induce degradation of SGK3 |  |  |  |  | 

Structure (SMILES) | time of maximal reduction of SGK3 expression (HEK293, 1 μM) | concentration that maximally reduced SGK3 expression (HEK293, 8 h time point, dose response) | SGK3 degradation efficiency (HEK293, 48 h) | remaining activity at 0.001 µM (HEK293, 48 h) | remaining activity at 0.01 µM (HEK293, 48 h) | remaining activity at 0.1 µM (HEK293, 48 h, 0.1 μM) | reduction of SGK3 expression (HEK293, 48 h, 1 μM) | remaining activity at 1 µM (HEK293, 48 h, 1 μM) | reduction of SGK3 expression (HEK293, 48 h, 10 μM) | remaining activity at 10 µM (HEK293, 48 h, 10 μM) | degradation of endogenous SGK3 (HEK293, 0.3 μM, within 2 h) | degradation of SGK3 | reduction of SGK3 levels (HEK293, 48 h, 0.1 μM) | time to increased SGK3 expression after washout [1] | time to return of SGK3 protein to normal levels after washout [1] | Dmax (HEK293, within 8 h, read-out: maximal degradation of SGK3) | DC50 (SGK3 degradation)
Cc1ccc(F)c(S(=O)(=O)Nc2ccc(-c3nc(OC[C@H]4CN(CCCCCCOCCOCCOCC(=O)N[C@H](C(=O)N5C[C@H](O)C[C@H]5C(=O)NCc5ccc(-c6scnc6C)cc5)C(C)(C)C)CCO4)c4cn[nH]c4n3)cc2)c1 [SGK3-PROTAC1] |  |  | ++++ (“++++” = >60% degradation at 0.1 μM) | 97% | 107% | 34% |  | 24% |  | 19% | 50% | markedly reduced SGK3 expression | 65% | 1 h | 10 h | 80% | < 100 nM
